Paper PMC9310519, “Small-molecule inhibitor of intestinal anion exchanger SLC26A3 for treatment of hyperoxaluria and nephrolithiasis” (JCI Insight, 2022)
pIC50: −log10 of the molar value.

What was measured:
SLC26A3 (human) = SLC26A3 (human) (Homo sapiens, UniProt P40879); assay: YFP halide-sensor anion transport assay in HEK293 cells expressing human SLC26A3; format: cell-based
SLC26A3 (murine) = SLC26A3 (murine) (Mus musculus, UniProt Q9WVC8); assay: YFP oxalate/chloride exchange assay in FRT cells stably expressing murine SLC26A3; Transwell oxalate transport; format: cell-based
5-HT1A Human Serotonin = target: T1, 5-HT1A Human Serotonin (Homo sapiens, UniProt P08908); assay: biochemical; design: Eurofins SafetyScreen44 radioligand binding displacement, percent inhibition, duplicate; settings: radioligand binding
T1 construct: gene HTR1A
Protocol: (§1) Possible off-target effects of DRAinh-A270 were investigated by panel screening (Eurofins SafetyScreen44). […] Testing for CYP450 and hERG inhibition also supported DRAinh-A270 safety (Supplemental Tables 2 and 3, respectively). Finally, metabolic stability of DRAinh-A270 was measured in mouse, rat, and human microsomes.

5-HT1B Human Serotonin = target: T2, 5-HT1B Human Serotonin (Homo sapiens, UniProt P28222); assay: biochemical; design: Eurofins SafetyScreen44 radioligand binding displacement, percent inhibition, duplicate; settings: radioligand binding
T2 construct: gene HTR1B
T2 sequence (P28222 whole entry): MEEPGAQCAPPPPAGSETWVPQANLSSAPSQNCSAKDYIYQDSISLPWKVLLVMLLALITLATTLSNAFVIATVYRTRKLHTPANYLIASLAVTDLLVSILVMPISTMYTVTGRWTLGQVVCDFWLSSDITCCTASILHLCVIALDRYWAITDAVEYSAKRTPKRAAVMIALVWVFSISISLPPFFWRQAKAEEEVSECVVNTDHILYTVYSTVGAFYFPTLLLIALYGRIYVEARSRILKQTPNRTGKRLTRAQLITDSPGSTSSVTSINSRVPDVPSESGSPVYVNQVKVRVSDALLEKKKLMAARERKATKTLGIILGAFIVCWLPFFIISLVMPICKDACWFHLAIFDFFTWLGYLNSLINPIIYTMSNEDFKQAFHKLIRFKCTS
Protocol: as §1

5-HT2A Human Serotonin = target: T3, 5-HT2A Human Serotonin (Homo sapiens, UniProt P28223); assay: biochemical; design: Eurofins SafetyScreen44 radioligand binding displacement, percent inhibition, duplicate; settings: radioligand binding
T3 construct: gene HTR2A
T3 sequence (P28223 whole entry): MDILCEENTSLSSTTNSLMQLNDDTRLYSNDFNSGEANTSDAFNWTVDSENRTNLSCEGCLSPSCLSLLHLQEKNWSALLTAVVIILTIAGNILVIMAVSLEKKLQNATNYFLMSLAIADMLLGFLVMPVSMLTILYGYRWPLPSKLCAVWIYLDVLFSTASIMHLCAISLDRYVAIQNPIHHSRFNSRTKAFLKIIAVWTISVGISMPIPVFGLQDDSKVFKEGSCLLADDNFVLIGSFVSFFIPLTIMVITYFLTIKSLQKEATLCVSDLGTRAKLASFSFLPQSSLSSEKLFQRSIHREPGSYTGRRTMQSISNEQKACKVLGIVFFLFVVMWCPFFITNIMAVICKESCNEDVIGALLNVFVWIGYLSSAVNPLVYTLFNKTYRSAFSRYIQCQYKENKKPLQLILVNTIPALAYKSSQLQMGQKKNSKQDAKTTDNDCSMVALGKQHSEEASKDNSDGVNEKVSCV
Protocol: as §1

5-HT2B Human Serotonin = target: T4, 5-HT2B Human Serotonin (Homo sapiens, UniProt P41595); assay: biochemical; design: Eurofins SafetyScreen44 radioligand binding displacement, percent inhibition, duplicate; settings: radioligand binding
T4 construct: gene HTR2B
Protocol: as §1

5-HT3 Human Serotonin = target: T5, 5-HT3 Human Serotonin (Homo sapiens, UniProt P46098); assay: biochemical; design: Eurofins SafetyScreen44 radioligand binding displacement, percent inhibition, duplicate; settings: radioligand binding
T5 construct: gene HTR3A
Protocol: as §1

A2A Human Adenosine = target: T6, A2A Human Adenosine (Homo sapiens, UniProt P29274); assay: biochemical; design: Eurofins SafetyScreen44 radioligand binding displacement, percent inhibition, duplicate; settings: radioligand binding
T6 construct: gene ADORA2A
Protocol: as §1

AR Human Androgen = AR Human Androgen (Homo sapiens, UniProt P10275); assay: biochemical; design: Eurofins SafetyScreen44 radioligand binding displacement, percent inhibition, duplicate; settings: radioligand binding
Protocol: as §1

CB1 Human Cannabinoid = target: T7, CB1 Human Cannabinoid (Homo sapiens, UniProt P21554); assay: biochemical; design: Eurofins SafetyScreen44 radioligand binding displacement, percent inhibition, duplicate; settings: radioligand binding
T7 construct: gene CNR1
Protocol: as §1

CB2 Human Cannabinoid = target: T8, CB2 Human Cannabinoid (Homo sapiens, UniProt P34972); assay: biochemical; design: Eurofins SafetyScreen44 radioligand binding displacement, percent inhibition, duplicate; settings: radioligand binding
T8 construct: gene CNR2
T8 sequence (P34972 whole entry): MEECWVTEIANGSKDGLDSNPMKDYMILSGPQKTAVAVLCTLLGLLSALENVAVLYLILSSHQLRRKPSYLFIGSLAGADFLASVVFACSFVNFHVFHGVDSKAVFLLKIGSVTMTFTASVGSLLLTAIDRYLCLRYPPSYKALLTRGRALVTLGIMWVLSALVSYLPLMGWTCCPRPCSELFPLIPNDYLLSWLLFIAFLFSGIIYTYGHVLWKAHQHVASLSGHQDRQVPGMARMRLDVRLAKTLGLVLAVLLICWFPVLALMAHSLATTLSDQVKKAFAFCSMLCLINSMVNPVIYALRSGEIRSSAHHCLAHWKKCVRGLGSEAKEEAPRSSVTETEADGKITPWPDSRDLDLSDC
Protocol: as §1

[1] = target: T9, CCK1 (CCKA) Human Cholecystokinin (Homo sapiens, UniProt P32238); assay: biochemical; design: Eurofins SafetyScreen44 radioligand binding displacement, percent inhibition, duplicate; settings: radioligand binding
T9 construct: gene CCKAR
Protocol: as §1

D1 Human Dopamine = target: T10, D1 Human Dopamine (Homo sapiens, UniProt P21728); assay: biochemical; design: Eurofins SafetyScreen44 radioligand binding displacement, percent inhibition, duplicate; settings: radioligand binding
T10 construct: gene DRD1
T10 sequence (P21728 whole entry): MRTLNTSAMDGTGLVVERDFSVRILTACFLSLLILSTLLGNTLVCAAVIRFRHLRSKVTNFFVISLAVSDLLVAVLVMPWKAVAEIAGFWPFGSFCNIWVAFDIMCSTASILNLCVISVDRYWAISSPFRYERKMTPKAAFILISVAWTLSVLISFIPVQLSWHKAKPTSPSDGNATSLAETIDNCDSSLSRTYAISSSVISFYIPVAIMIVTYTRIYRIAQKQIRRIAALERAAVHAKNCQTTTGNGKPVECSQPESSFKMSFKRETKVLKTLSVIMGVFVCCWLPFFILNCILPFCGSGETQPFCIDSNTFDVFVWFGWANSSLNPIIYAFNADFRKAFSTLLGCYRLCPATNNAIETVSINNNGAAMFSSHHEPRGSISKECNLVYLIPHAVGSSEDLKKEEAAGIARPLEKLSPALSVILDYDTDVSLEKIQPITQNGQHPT
Protocol: as §1

D2S Human Dopamine = target: T11, D2S Human Dopamine (Homo sapiens, UniProt P14416); assay: biochemical; design: Eurofins SafetyScreen44 radioligand binding displacement, percent inhibition, duplicate; settings: radioligand binding
T11 construct: gene DRD2; D2S short isoform
Protocol: as §1

[2] = target: T12, DAT Human Dopamine Transporter (Homo sapiens, UniProt Q01959); assay: biochemical; design: Eurofins SafetyScreen44 radioligand binding displacement, percent inhibition, duplicate; settings: radioligand binding
T12 construct: gene SLC6A3
T12 sequence (Q01959 whole entry): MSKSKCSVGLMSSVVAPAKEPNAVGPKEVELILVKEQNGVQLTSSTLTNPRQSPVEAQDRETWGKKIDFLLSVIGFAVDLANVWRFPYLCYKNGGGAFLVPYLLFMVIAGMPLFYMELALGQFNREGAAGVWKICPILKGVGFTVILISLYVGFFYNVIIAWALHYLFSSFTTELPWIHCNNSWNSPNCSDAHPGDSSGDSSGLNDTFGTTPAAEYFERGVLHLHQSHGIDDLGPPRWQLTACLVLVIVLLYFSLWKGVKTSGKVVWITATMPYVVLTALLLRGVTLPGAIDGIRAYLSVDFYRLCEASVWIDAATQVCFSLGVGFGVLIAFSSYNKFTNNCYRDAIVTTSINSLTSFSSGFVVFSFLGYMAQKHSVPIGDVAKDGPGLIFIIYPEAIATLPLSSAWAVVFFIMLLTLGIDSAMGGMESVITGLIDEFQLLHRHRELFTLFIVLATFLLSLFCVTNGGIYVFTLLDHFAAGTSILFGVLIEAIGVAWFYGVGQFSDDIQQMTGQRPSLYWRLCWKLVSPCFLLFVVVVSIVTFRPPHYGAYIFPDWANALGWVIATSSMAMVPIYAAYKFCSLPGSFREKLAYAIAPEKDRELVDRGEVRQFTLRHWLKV
Protocol: as §1

ETA Human Endothelin = target: T13, ETA Human Endothelin (Homo sapiens, UniProt P25101); assay: biochemical; design: Eurofins SafetyScreen44 radioligand binding displacement, percent inhibition, duplicate; settings: radioligand binding
T13 construct: gene EDNRA
Protocol: as §1

GR Human Glucocorticoid = target: T14, GR Human Glucocorticoid (Homo sapiens, UniProt P04150); assay: biochemical; design: Eurofins SafetyScreen44 radioligand binding displacement, percent inhibition, duplicate; settings: radioligand binding
T14 construct: gene NR3C1
Protocol: as §1

H1 Human Histamine = target: T15, H1 Human Histamine (Homo sapiens, UniProt P35367); assay: biochemical; design: Eurofins SafetyScreen44 radioligand binding displacement, percent inhibition, duplicate; settings: radioligand binding
T15 construct: gene HRH1
Protocol: as §1

H2 Human Histamine = target: T16, H2 Human Histamine (Homo sapiens, UniProt P25021); assay: biochemical; design: Eurofins SafetyScreen44 radioligand binding displacement, percent inhibition, duplicate; settings: radioligand binding
T16 construct: gene HRH2
Protocol: as §1

[3] = target: T17, M1 Human Acetylcholine (Muscarinic) (Homo sapiens, UniProt P11229); assay: biochemical; design: Eurofins SafetyScreen44 radioligand binding displacement, percent inhibition, duplicate; settings: radioligand binding
T17 construct: gene CHRM1
T17 sequence (P11229 whole entry): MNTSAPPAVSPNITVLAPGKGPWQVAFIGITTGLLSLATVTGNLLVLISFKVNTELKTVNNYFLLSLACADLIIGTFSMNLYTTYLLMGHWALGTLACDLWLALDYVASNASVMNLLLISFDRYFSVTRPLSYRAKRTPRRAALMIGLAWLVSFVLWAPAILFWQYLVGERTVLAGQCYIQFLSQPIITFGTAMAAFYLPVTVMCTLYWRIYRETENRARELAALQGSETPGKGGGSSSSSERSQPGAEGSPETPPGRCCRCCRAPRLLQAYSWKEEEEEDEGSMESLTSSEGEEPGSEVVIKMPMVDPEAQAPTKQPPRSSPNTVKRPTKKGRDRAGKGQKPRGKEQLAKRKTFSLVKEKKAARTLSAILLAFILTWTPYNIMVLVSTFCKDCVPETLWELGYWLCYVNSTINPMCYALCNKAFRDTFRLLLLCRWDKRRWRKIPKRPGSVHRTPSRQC
Protocol: as §1

[4] = target: T18, M2 Human Acetylcholine (Muscarinic) (Homo sapiens, UniProt P08172); assay: biochemical; design: Eurofins SafetyScreen44 radioligand binding displacement, percent inhibition, duplicate; settings: radioligand binding
T18 construct: gene CHRM2
T18 sequence (P08172 whole entry): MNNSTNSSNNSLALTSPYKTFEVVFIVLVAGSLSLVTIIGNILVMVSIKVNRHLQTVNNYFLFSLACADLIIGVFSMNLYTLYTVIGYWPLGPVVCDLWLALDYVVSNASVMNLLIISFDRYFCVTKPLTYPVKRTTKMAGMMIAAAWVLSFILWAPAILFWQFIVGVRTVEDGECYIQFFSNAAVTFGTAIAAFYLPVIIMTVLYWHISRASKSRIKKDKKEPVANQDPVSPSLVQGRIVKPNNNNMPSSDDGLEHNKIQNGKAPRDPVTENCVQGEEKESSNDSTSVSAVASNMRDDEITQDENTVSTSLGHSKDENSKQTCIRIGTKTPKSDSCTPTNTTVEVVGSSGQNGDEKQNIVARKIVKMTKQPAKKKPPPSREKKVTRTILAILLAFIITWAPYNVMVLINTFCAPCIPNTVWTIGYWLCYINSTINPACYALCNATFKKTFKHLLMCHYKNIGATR
Protocol: as §1

[5] = target: T19, M3 Human Acetylcholine (Muscarinic) (Homo sapiens, UniProt P20309); assay: biochemical; design: Eurofins SafetyScreen44 radioligand binding displacement, percent inhibition, duplicate; settings: radioligand binding
T19 construct: gene CHRM3
Protocol: as §1

[6] = target: T20, NET Human Norepinephrine Transporter (Homo sapiens, UniProt P23975); assay: biochemical; design: Eurofins SafetyScreen44 radioligand binding displacement, percent inhibition, duplicate; settings: radioligand binding
T20 construct: gene SLC6A2
Protocol: as §1

V1A Human Vasopressin = target: T21, V1A Human Vasopressin (Homo sapiens, UniProt P37288); assay: biochemical; design: Eurofins SafetyScreen44 radioligand binding displacement, percent inhibition, duplicate; settings: radioligand binding
T21 construct: gene AVPR1A
Protocol: as §1

[7] = target: T22, alpha1A Human Adrenoceptor (Homo sapiens, UniProt P35348); assay: biochemical; design: Eurofins SafetyScreen44 radioligand binding displacement, percent inhibition, duplicate; settings: radioligand binding
T22 construct: gene ADRA1A
Protocol: as §1

[8] = target: T23, alpha2A Human Adrenoceptor (Homo sapiens, UniProt P08913); assay: biochemical; design: Eurofins SafetyScreen44 radioligand binding displacement, percent inhibition, duplicate; settings: radioligand binding
T23 construct: gene ADRA2A
Protocol: as §1

beta1 Human Adrenoceptor = target: T24, beta1 Human Adrenoceptor (Homo sapiens, UniProt P08588); assay: biochemical; design: Eurofins SafetyScreen44 radioligand binding displacement, percent inhibition, duplicate; settings: radioligand binding
T24 construct: gene ADRB1
Protocol: as §1

beta2 Human Adrenoceptor = target: T25, beta2 Human Adrenoceptor (Homo sapiens, UniProt P07550); assay: biochemical; design: Eurofins SafetyScreen44 radioligand binding displacement, percent inhibition, duplicate; settings: radioligand binding
T25 construct: gene ADRB2
Protocol: as §1

delta (DOP) Human Opioid = target: T26, delta (DOP) Human Opioid (Homo sapiens, UniProt P41143); assay: biochemical; design: Eurofins SafetyScreen44 radioligand binding displacement, percent inhibition, duplicate; settings: radioligand binding
T26 construct: gene OPRD1
Protocol: as §1

hERG = target: T27, hERG (Homo sapiens, UniProt Q12809); assay: in vitro; design: Eurofins SafetyScreen44 radioligand binding displacement, percent inhibition, duplicate; settings: radioligand binding
T27 construct: gene KCNH2
Protocol: as §1

kappa (KOP) Human Opioid = target: T28, kappa (KOP) Human Opioid (Homo sapiens, UniProt P41145); assay: biochemical; design: Eurofins SafetyScreen44 radioligand binding displacement, percent inhibition, duplicate; settings: radioligand binding
T28 construct: gene OPRK1
Protocol: as §1

mu (MOP) Human Opioid = target: T29, mu (MOP) Human Opioid (Homo sapiens, UniProt P35372); assay: biochemical; design: Eurofins SafetyScreen44 radioligand binding displacement, percent inhibition, duplicate; settings: radioligand binding
T29 construct: gene OPRM1
Protocol: as §1

[9] = target: T30, nAChR (alpha4/beta2) Human Ion Channel (Homo sapiens, UniProt P17787+P43681); assay: biochemical; design: Eurofins SafetyScreen44 radioligand binding displacement, percent inhibition, duplicate; settings: radioligand binding
T30 construct: gene CHRNB2
Protocol: as §1

Acetylcholinesterase = target: T31, Acetylcholinesterase (Homo sapiens, UniProt P22303); assay: biochemical; design: Eurofins SafetyScreen44 enzymatic assay, percent inhibition, duplicate; settings: enzymatic assay
T31 construct: gene ACHE
Protocol: as §1

[10] = target: T32, COX1 Human Cyclooxygenase (Homo sapiens, UniProt P23219); assay: biochemical; design: Eurofins SafetyScreen44 enzymatic assay, percent inhibition, duplicate; settings: enzymatic assay
T32 construct: gene PTGS1
T32 sequence (P23219 whole entry): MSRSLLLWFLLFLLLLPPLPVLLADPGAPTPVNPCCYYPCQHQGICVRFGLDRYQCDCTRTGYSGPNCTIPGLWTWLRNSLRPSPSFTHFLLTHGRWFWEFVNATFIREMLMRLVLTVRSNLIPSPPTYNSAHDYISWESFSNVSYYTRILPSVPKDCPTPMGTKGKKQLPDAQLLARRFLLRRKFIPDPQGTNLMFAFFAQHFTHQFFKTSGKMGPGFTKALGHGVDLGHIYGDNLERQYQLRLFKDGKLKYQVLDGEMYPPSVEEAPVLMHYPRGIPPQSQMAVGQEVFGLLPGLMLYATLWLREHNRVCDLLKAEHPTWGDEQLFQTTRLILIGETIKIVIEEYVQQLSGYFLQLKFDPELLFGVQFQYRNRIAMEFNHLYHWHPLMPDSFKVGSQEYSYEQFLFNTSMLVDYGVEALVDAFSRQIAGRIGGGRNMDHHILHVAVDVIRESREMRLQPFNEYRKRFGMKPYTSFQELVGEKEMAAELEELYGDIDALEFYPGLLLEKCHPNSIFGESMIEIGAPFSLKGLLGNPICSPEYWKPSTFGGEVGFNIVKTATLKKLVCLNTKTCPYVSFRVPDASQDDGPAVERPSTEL
Protocol: as §1

[11] = target: T33, COX2 Human Cyclooxygenase (Homo sapiens, UniProt P35354); assay: biochemical; design: Eurofins SafetyScreen44 enzymatic assay, percent inhibition, duplicate; settings: enzymatic assay
T33 construct: gene PTGS2
T33 sequence (P35354 whole entry): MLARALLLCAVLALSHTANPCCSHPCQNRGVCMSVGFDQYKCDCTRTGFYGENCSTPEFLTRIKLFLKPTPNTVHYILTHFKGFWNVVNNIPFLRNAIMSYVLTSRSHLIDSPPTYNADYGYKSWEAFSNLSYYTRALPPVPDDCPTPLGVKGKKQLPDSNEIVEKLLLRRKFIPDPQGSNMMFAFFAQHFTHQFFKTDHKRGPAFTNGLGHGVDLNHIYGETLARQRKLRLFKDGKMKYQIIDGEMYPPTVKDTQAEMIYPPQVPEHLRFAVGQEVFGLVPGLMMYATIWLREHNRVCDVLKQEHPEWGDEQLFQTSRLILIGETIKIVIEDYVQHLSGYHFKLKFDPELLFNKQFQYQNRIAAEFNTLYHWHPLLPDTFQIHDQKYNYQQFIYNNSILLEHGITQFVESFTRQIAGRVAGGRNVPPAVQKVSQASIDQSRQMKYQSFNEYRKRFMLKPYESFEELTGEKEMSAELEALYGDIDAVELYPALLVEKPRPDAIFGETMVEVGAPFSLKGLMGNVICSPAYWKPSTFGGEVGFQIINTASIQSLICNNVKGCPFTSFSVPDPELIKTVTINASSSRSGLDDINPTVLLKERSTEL
Protocol: as §1

[12] = target: T34, Monoamine Oxidase A (MAO-A) (Homo sapiens, UniProt P21397); assay: biochemical; design: Eurofins SafetyScreen44 enzymatic assay, percent inhibition, duplicate; settings: enzymatic assay
T34 construct: gene MAOA
T34 sequence (P21397 whole entry): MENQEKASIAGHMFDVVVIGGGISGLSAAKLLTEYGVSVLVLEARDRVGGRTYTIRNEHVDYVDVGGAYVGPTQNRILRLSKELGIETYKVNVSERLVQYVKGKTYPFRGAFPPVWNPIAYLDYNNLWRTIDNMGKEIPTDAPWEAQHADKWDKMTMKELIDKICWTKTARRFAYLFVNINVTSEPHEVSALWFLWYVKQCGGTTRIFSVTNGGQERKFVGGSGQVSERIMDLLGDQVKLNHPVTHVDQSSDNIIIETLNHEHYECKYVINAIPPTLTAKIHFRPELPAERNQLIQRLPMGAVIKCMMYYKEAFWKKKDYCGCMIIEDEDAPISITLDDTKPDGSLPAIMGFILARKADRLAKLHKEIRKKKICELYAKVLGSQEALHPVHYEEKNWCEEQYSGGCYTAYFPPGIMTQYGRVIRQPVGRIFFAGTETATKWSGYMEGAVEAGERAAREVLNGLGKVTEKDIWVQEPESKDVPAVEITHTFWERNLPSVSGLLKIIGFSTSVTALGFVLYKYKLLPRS
Protocol: as §1

[13] = target: PDE3A Human Phosphodiesterase (Homo sapiens, UniProt Q14432); assay: biochemical; design: Eurofins SafetyScreen44 enzymatic assay, percent inhibition, duplicate; settings: enzymatic assay
Protocol: as §1

[14] = target: T35, PDE4D2 Human Phosphodiesterase (Homo sapiens, UniProt Q08499); assay: biochemical; design: Eurofins SafetyScreen44 enzymatic assay, percent inhibition, duplicate; settings: enzymatic assay
T35 construct: gene PDE4D; PDE4D2 isoform
Protocol: as §1

In the case of `Cc1c(CC(=O)O)c(=O)oc2c(C)c(OCc3cccc(I)c3)ccc12` [4az (in ref. 19), DRAinh-A270], the pIC50 (SLC26A3 (human)) was 7.70, the pIC50 (SLC26A3 (murine)) was ~7.22 and the inhibition at 10 µM (5-HT1A Human Serotonin) was 0%. The inhibition at 10 µM (5-HT1B Human Serotonin) was -1%, the inhibition at 10 µM (5-HT2A Human Serotonin) was 17% and the inhibition at 10 µM (5-HT2B Human Serotonin) was 64%. For the same compound, the inhibition at 10 µM (5-HT3 Human Serotonin) was -6%, the inhibition at 10 µM (A2A Human Adenosine) was 46% and the inhibition at 10 µM (AR Human Androgen) was 13%. The inhibition at 10 µM (CB1 Human Cannabinoid) was -3%, the inhibition at 10 µM (CB2 Human Cannabinoid) was -1% and the inhibition at 10 µM [1] was -5%. For the same compound, the inhibition at 10 µM (D1 Human Dopamine) was 13%, the inhibition at 10 µM (D2S Human Dopamine) was 2% and the inhibition at 10 µM [2] was -2%. For the same compound, the inhibition at 10 µM (ETA Human Endothelin) was 13%, the inhibition at 10 µM (GR Human Glucocorticoid) was -7% and the inhibition at 10 µM (H1 Human Histamine) was 27%. For the same compound, the inhibition at 10 µM (H2 Human Histamine) was -2%, the inhibition at 10 µM [3] was 9% and the inhibition at 10 µM [4] was -3%. The inhibition at 10 µM [5] was 8%, the inhibition at 10 µM [6] was 29% and the inhibition at 10 µM (V1A Human Vasopressin) was -1%. For the same compound, the inhibition at 10 µM [7] was 5%, the inhibition at 10 µM [8] was 47% and the inhibition at 10 µM (beta1 Human Adrenoceptor) was 14%. The inhibition at 10 µM (beta2 Human Adrenoceptor) was 3%, the inhibition at 10 µM (delta (DOP) Human Opioid) was -3% and the inhibition at 10 µM (hERG) was 19%. It also gave an inhibition at 10 µM (kappa (KOP) Human Opioid) of 7%, an inhibition at 10 µM (mu (MOP) Human Opioid) of -5% and an inhibition at 10 µM [9] of -3%. For the same compound, the inhibition at 10 µM (Acetylcholinesterase) was 10%, the inhibition at 10 µM [10] was -1% and the inhibition at 10 µM [11] was 15%. It also gave an inhibition at 10 µM [12] of 73%, an inhibition at 10 µM [13] of 4% and an inhibition at 10 µM [14] of -2%.
